According to US4448962A, “Substituted quinoline carboxylic acid derivatives” (Kyorin Seiyaku Kabushiki Kaisha, priority 1978, dated 1984):
Values after ≈ are worked out from the molar mass of the structure shown. Structures can show the parent of a compound that is named as a salt. Where two headings read alike, the source gives them in different places.

Key:
Assay in all cases: Antibacterial spectrum (Minimum Inhibitory Concentration)
Type in all cases: cell-based
[1] = test system: Staphylococcus aureus 209P; conditions: read-out: Minimum Inhibitory Concentration
From the text: (§1) The antibacterial tests were done according to the method authorized by the Chemotherapeutic Society of Japan.

[2] = test system: Serratia marcescens IID 618
From the text: as §1

Ps. aeruginosa IID 1210 = conditions: Pseudomonas aeruginosa
From the text: as §1

Ser. marcescens IID 620 = conditions: Serratia marcescens
From the text: as §1

Ps. aeruginosa IID 1130 = conditions: Pseudomonas aeruginosa
From the text: as §1

[3] = test system: Klebsiella pneumoniae IFO 3512
From the text: as §1

[4] = test system: Pseudomonas aeruginosa V-1
From the text: as §1

E. coli ATCC 10536 = conditions: Escherichia coli
From the text: as §1

Pr. vulgaris XK Denken = conditions: Proteus vulgaris, read-out: Minimum Inhibitory Concentration
From the text: as §1

[5] = test system: Escherichia coli NIHJ JC-2
From the text: as §1

Sta. aureus ATCC 14775 = conditions: Staphylococcus aureus
From the text: as §1

[6] = test system: Salmonella enteritidies IID 604
From the text: as §1

[7] = test system: Proteus vulgaris IFO 3167
From the text: as §1

Ser. marcescens IID 619 = conditions: Serratia marcescens
From the text: as §1

Ps. aeruginosa IFO 12689 = conditions: Pseudomonas aeruginosa
From the text: as §1

[8] = test system: Bacillus subtilis PCI 219
From the text: as §1

Shigella sonnei IID 969 = conditions: IID969; Shigella sonnei IID 969, Gram -
From the text: as §1

[9] = test system: Mycobacterium smegmatis IFO 3083; conditions: Mycolicibacterium smegmatis, IFO3083; Mycobacterium smegmatis IFO 3083, Gram +; read-out: Minimum Inhibitory Concentration
From the text: as §1

[10] = Staphylococcus aureus 209P, Gram +
[11] = IID618, Serratia marcescens IID 618, Gram -, read-out: Minimum Inhibitory Concentration
[12] = IID1210, Ps. aeruginosa IID 1210, Gram -, read-out: Minimum Inhibitory Concentration
[13] = IID620, Ser. marcescens IID 620, Gram -, read-out: Minimum Inhibitory Concentration
[14] = IID1130, Ps. aeruginosa IID 1130, Gram -, read-out: Minimum Inhibitory Concentration
[15] = IFO3512, Klebsiella pneumoniae IFO 3512, Gram -, read-out: Minimum Inhibitory Concentration
[16] = V1, Pseudomonas aeruginosa V-1, Gram -, read-out: Minimum Inhibitory Concentration
[17] = ATCC10536, E. coli ATCC 10536, Gram -, read-out: Minimum Inhibitory Concentration
[18] = NIHJJC2, Escherichia coli NIHJ JC-2, Gram -, read-out: Minimum Inhibitory Concentration
[19] = ATCC14775, Sta. aureus ATCC 14775, Gram +, read-out: Minimum Inhibitory Concentration
[20] = Salmonella, IID604, read-out: Minimum Inhibitory Concentration
[21] = IFO3167, Proteus vulgaris IFO 3167, Gram -, read-out: Minimum Inhibitory Concentration
[22] = IID619, Ser. marcescens IID 619, Gram -, read-out: Minimum Inhibitory Concentration
[23] = IFO12689, read-out: Minimum Inhibitory Concentration
[24] = PCI219, Bacillus subtilis PCI 219, Gram +, read-out: Minimum Inhibitory Concentration
[25] = ATCC10536, read-out: Minimum Inhibitory Concentration
[26] = IID604, Salmonella enteritidies IID 604, Gram -, read-out: Minimum Inhibitory Concentration
[27] = Proteus vulgaris, IFO3167, read-out: Minimum Inhibitory Concentration
[28] = IFO12689, Ps. aeruginosa IFO 12689, Gram -, read-out: Minimum Inhibitory Concentration
[29] = Klebsiella pneumoniae, IFO3512, read-out: Minimum Inhibitory Concentration
[30] = Escherichia coli, NIHJJC2, read-out: Minimum Inhibitory Concentration
[31] = ATCC14775, read-out: Minimum Inhibitory Concentration
[32] = Bacillus subtilis, PCI219, read-out: Minimum Inhibitory Concentration

Structure (SMILES)	MIC [1, 10] [µg/mL]	MIC [2, 11] [µg/mL]	MIC (Ps. aeruginosa IID 1210; [12]) [µg/mL]	MIC (Ser. marcescens IID 620; [13]) [µg/mL]	MIC (Ps. aeruginosa IID 1130; [14]) [µg/mL]	MIC [3, 15] [µg/mL]	MIC [4, 16] [µg/mL]	MIC (E. coli ATCC 10536; [17]) [µg/mL]	MIC (Pr. vulgaris XK Denken; Pr. vulgaris XK Denken, Gram -) [µg/mL]	MIC [5, 18] [µg/mL]	MIC (Sta. aureus ATCC 14775; [19]) [µg/mL]	MIC [7, 21] [µg/mL]	MIC (Ser. marcescens IID 619; [22]) [µg/mL]	MIC [8, 24] [µg/mL]	MIC (E. coli ATCC 10536; [25]) [µg/mL]	MIC (Shigella sonnei IID 969) [µg/mL]	MIC [6, 26] [µg/mL]	MIC [7, 27] [µg/mL]	MIC (Ps. aeruginosa IFO 12689; [28]) [µg/mL]	also measured
CCn1cc(C(=O)O)c(=O)c2cc(F)c(N3CCNCC3)nc21.Cl [Example 1, 1-ethyl-1,4-dihydro-6-fluoro-7-(1-piperazinyl)-4-oxo-1,8-naphthyridine-3-carboxylic acid hydrochloride]	0.78	0.39	6.25	0.39	1.56	0.2	3.13	0.39	0.39	0.2	6.25	0.2	0.78	0.39						MIC [6, 20]: 0.39 µg/mL; MIC (Ps. aeruginosa IFO 12689; [23]): 6.25 µg/mL
C=Cn1cc(C(=O)O)c(=O)c2cc(F)c(N3CCN(C)CC3)cc21.Cl [Example 4, 1-vinyl-6-fluoro-7-(4-methyl-1-piperazinyl)-4-oxo-1,4-dihydroquinoline-3-carboxylic acid hydrochloride]	1.56	0.39	3.13	0.39	6.25	< 0.1	3.13			< 0.1	3.13		0.78	0.39	0.2	0.2	0.78	0.2	3.13	MIC (Pr. vulgaris XK Denken): 0.2 µg/mL
Cl.O=C(O)c1cn(CCF)c2cc(N3CCNCC3)c(F)cc2c1=O [Example 5, 1-(2-fluoroethyl)-6-fluoro-7-(1-piperazinyl)-4-oxo-1,4-dihydroquinoline-3-carboxylic acid hydrochloride]															0.2	< 0.1		0.2		MIC ([1]; Staphylococcus aureus, 209P): 1.56 µg/mL; MIC ([2]; Serratia marcescens, IID618, read-out: Minimum Inhibitory Concentration): 0.2 µg/mL; MIC (Ps. aeruginosa IID 1210; IID1210, read-out: Minimum Inhibitory Concentration): 3.13 µg/mL; MIC (Ser. marcescens IID 620; IID620, read-out: Minimum Inhibitory Concentration): 0.2 µg/mL; MIC (Ps. aeruginosa IID 1130; IID1130, read-out: Minimum Inhibitory Concentration): 1.56 µg/mL; MIC [3, 29]: < 0.1 µg/mL; MIC ([4]; Pseudomonas aeruginosa, V1, read-out: Minimum Inhibitory Concentration): 0.78 µg/mL; MIC (Pr. vulgaris XK Denken): 0.39 µg/mL; MIC [5, 30]: < 0.1 µg/mL; MIC (Sta. aureus ATCC 14775; [31]): 6.25 µg/mL; MIC [6, 20]: 0.78 µg/mL; MIC (Ser. marcescens IID 619; IID619, read-out: Minimum Inhibitory Concentration): 0.39 µg/mL; MIC (Ps. aeruginosa IFO 12689; [23]): 3.13 µg/mL; MIC [8, 32]: 0.2 µg/mL
CN1CCN(c2cc3c(cc2F)c(=O)c(C(=O)O)cn3CCF)CC1 [Example 6, 1-(2-fluoroethyl)-6-fluoro-7-(4-methyl-1-piperazinyl)-4-oxo-1,4-dihydroquinoline-3-carboxylic acid]	0.39 (≈ 1.11 µM)	0.2 (≈ 0.569 µM)	6.25 (≈ 17.8 µM)	0.2 (≈ 0.569 µM)	6.25 (≈ 17.8 µM)		3.13 (≈ 8.91 µM)	0.2 (≈ 0.569 µM)		< 0.1	0.78 (≈ 2.22 µM)		0.2 (≈ 0.569 µM)			< 0.1	0.78 (≈ 2.22 µM)	< 0.1	3.13 (≈ 8.91 µM)	MIC [3, 29]: < 0.1 µg/mL; MIC (Pr. vulgaris XK Denken): < 0.1 µg/mL; MIC [8, 32]: < 0.1 µg/mL
CCn1cc(C(=O)O)c(=O)c2cc(F)c(N3CCN(Cc4ccc(N)cc4)CC3)cc21.Cl [Example 7, 1-ethyl-7-[(4-p-aminobenzyl)-1-piperazinyl]-1,4-dihydro-6-fluoro-4-oxo-quinoline-3-carboxylic acid hydrochloride]		3.13	25		25		12.5		0.78			0.78	3.13		0.39		3.13		25	MIC [3, 29]: 0.1 µg/mL; MIC (Sta. aureus ATCC 14775; [31]): 0.39 µg/mL; MIC [8, 32]: 0.2 µg/mL
CCn1cc(C(=O)O)c(=O)c2cc(F)c(N3CCNC(=O)C3)cc21 [Example 8, 1-ethyl-1,4-dihydro-6-fluoro-7-(3-oxo-1-piperazinyl)-4-oxoquinoline-3-carboxylic acid]	3.13 (≈ 9.39 µM)	6.25 (≈ 18.8 µM)	> 25	6.25 (≈ 18.8 µM)	25 (≈ 75 µM)	0.1 (≈ 0.3 µM)	12.5 (≈ 37.5 µM)	0.78 (≈ 2.34 µM)	0.39 (≈ 1.17 µM)	0.39 (≈ 1.17 µM)	6.25 (≈ 18.8 µM)	0.78 (≈ 2.34 µM)	12.5 (≈ 37.5 µM)	0.78 (≈ 2.34 µM)			12.5 (≈ 37.5 µM)		25 (≈ 75 µM)	
CCOC(=O)CN1CCN(c2cc3c(cc2Cl)c(=O)c(C(=O)O)cn3CC)CC1 [Example 13, 1-ethyl-6-chloro-7-(4-ethoxycarbonylmethyl-1-piperazinyl)-4-oxo-1,4-dihydroquinoline-3-carboxylic acid]	> 100					6.25 (≈ 14.8 µM)	> 100	100 (≈ 237 µM)	50 (≈ 119 µM)	100 (≈ 237 µM)		100 (≈ 237 µM)		3.13 (≈ 7.42 µM)					> 100	MIC [9]: 25 µg/mL (≈ 59.3 µM)
CCn1cc(C(=O)O)c(=O)c2cc(Cl)c(N3CCN(CC(=O)O)CC3)cc21 [Example 14]						12.5 (≈ 31.7 µM)	> 100	12.5 (≈ 31.7 µM)	12.5 (≈ 31.7 µM)	12.5 (≈ 31.7 µM)		25 (≈ 63.5 µM)		50 (≈ 127 µM)					> 100	MIC ([1]; Staphylococcus aureus, 209P): 50 µg/mL (≈ 127 µM); MIC [9]: > 100 µg/mL
CCn1cc(C(=O)O)c(=O)c2cc(Br)c(N3CCNCC3)cc21 [Example 22, 1-ethyl-6-bromo-dihydro-4-oxo-7-(1-piperazinyl)quinoline-3-carboxylic acid hydrochloride]	3.13	0.78	100	0.78	50	0.39	12.5	0.78	1.56	0.39	12.5	0.39	3.13	1.56		0.39	1.56		50	
CCn1cc(C(=O)O)c(=O)c2cc(Br)c(N3CCN(C)CC3)cc21 [Example 23, 1-ethyl-6-bromo-1,4-dihydro-7-(4-methyl-1-piperazinyl)-4-oxoquinoline-3-carboxylic acid]	1.56 (≈ 3.96 µM)	0.78 (≈ 1.98 µM)	> 100	0.78 (≈ 1.98 µM)	> 100	0.39 (≈ 0.989 µM)	100 (≈ 254 µM)	0.78 (≈ 1.98 µM)	3.13 (≈ 7.94 µM)	0.39 (≈ 0.989 µM)	3.13 (≈ 7.94 µM)	0.78 (≈ 1.98 µM)	3.13 (≈ 7.94 µM)	0.78 (≈ 1.98 µM)		0.78 (≈ 1.98 µM)	3.13 (≈ 7.94 µM)		> 100	
CCn1cc(C(=O)O)c(=O)c2cc(F)c(N3CCN(Cc4ccc([N+](=O)[O-])cc4)CC3)cc21 [Example 27, 1-ethyl-1,4-dihydro-6-fluoro-7-[4-(p-nitrobenzyl)-1-piperazinyl]-4-oxo-3-carboxylic acid]	1.56 (≈ 3.43 µM)					0.1 (≈ 0.22 µM)	> 50		12.5 (≈ 27.5 µM)		3.13 (≈ 6.89 µM)			0.1 (≈ 0.22 µM)	6.25 (≈ 13.8 µM)	6.25 (≈ 13.8 µM)		6.25 (≈ 13.8 µM)	> 50	MIC [5, 30]: 6.25 µg/mL (≈ 13.8 µM)
CCn1cc(C(=O)O)c(=O)c2cc(F)c(N3CCN(C4OC(=O)c5ccccc54)CC3)cc21 (stereo not drawn) [Example 28, 1-ethyl-1,4-dihydro-6-fluoro-4-oxo-7-(4-phthalidyl-1-piperazinyl)quinoline-3-carboxylic acid]	0.78 (≈ 1.73 µM)	0.1 (≈ 0.222 µM)	1.56 (≈ 3.46 µM)	0.1 (≈ 0.222 µM)	1.56 (≈ 3.46 µM)	≤ 0.05	0.78 (≈ 1.73 µM)		0.2 (≈ 0.443 µM)	≤ 0.05	3.13 (≈ 6.93 µM)	≤ 0.05	0.2 (≈ 0.443 µM)	0.2 (≈ 0.443 µM)	0.1 (≈ 0.222 µM)		0.1 (≈ 0.222 µM)		1.56 (≈ 3.46 µM)	
